Columns and labels:
As230 antiserum = assay: Cross-reactivity determinations in the indirect competitive ELISA As230/PC1-BSA (AE); assay type: binding, New Zealand white rabbits; settings: for % RC (cross-reactivity): (IC50 1-hydroxyphenazine/IC50 phenazine compound)x100; for IC50: calibration curves in PBST, coating antigen PC1-BSA (AE), antiserum As230
Experimental: The MALDI-TOF-MS mass spectrometer (mass spectrometer with laser assisted by ionization/desorption matrix with flight time) which it uses to characterize the conjugates of protein was a Bruker 200-Hz SmartBeam (Bruker-Daltonics, Leipzig, Germany). The detection was performed in the positive ion mode, ionized with a laser power set at 70% of the maximum laser intensity of the instrument at a frequency of 10-100 Hz. The pH and the conductivity of all the buffers and solutions was measured with a 540 GLP phMeter and a LF 340 conductivity meter, respectively (WTW, Weilheim, Germany). The polystyrene microtiter plates were from Nunc (Maxisorp, Roskilde, Denmark). The washing steps were carried out using a microplate washer (ELx405 HT (BioTek, Vinooski, Vt., USA)). The absorbencies were read in a SpectramaxPlus (Molecular Devices, Sunnyvale, Calif.) in a wavelength mode of 450 nm. The competition curves were analysed with a four-parameter equation using the SoftmaxPro v4.7 (Molecular Devices) and GraphPad Prism v 4 (GraphPad Software Inc, San Diego, Calif.) software. The standard curve was adjusted to a logistical equation of four parameters according to the formula y=(A−B/[1−(x/C)D])+B, where A is the maximum absorbance, B is the minimum absorbance, C is the concentration which produces 50% of the difference between the maximum and minimum absorbance (or IC50), and D is the gradient in the point of inflection of the sigmoidal curve. Unless indicated otherwise, the data shown correspond to the mean of at least two replicates.
The polyclonal antiserums As230, As231 and As232 were obtained by the immunization of New Zealand white rabbits (female) with weights around 1-2 kg with PC1-HCH (MA) following a protocol already described by Ballesteros et al. (Analytica Chimica Acta 1997, 347, 139). The evolution of the titers of antibodies was assessed by measuring the binding of serial solutions of each antiserum to microtiter plates coated with the homologous BSA conjugate. Once acceptable titers of antibodies are obtained, the animals were exsanguinated and the blood was collected in Vacutainer tubes provided with serum separation gel. The antiserums were obtained by centrifugation and were stored at −80° C. in the presence of 0.02% NaN3.
The microtiter plates were coated with PC1-BSA (AE) (0.125 μg/ml with coating buffer 100 μL/well) during 4 h at 25° C. with adhesive sealants. Then, the plates were washed four times with PBST (300 μL/well) before adding the standards (1-hydroxyphenazine or another type of related analytes, at different concentrations from 1000 nM to 0 nM in PBhST), and the samples at different concentrations (50 μl/well), followed by the As230 antiserum solution (1/8000 dilution in PBhST, 50 μl/well). After 30 min at ambient temperature, the plates were washed a further nine times with PBST and the anti-IgG-HRP solution was added (1/6000 in PBST, 100 μl/well). After 30 min of incubation at ambient temperature, the microplates were again washed four times with PBST and the substrate solution was added (100 μl/well) and the enzyme reaction was stopped after 30 min at ambient temperature by H2SO4 4 N (50 μl/well). The absorbencies were measured at 450 nm. The standard curve was adjusted to a logistical equation of four parameters according to the formula y=(A−B/[1−(x/C) D])+B, where A is the maximum absorbance, B is the minimum absorbance, C is the concentration that produces 50% of the difference between the maximum absorbance and minimum absorbance of the absorbance (or IC50), and D is gradient in the point of inflection of the sigmoidal curve. The limit of detection (LOD) is defined as the concentration which gives 90% response of the maximum absorbance (IC90) (see FIG. 1 and table 1).
Stock solutions were prepared of different compounds structurally related with pyocyanin and 1-hydroxyphenazine (10 mM in dimethyl sulfoxide) and they were stored at 4° C. […]

[1] = Conversion of pyocyanin into 1-hydroxyphenazine by NaOH, controlled by HPLC-UV; assay type: physicochemical; settings: 1 M NaOH, 20 min at a.t., phenazine as internal standard
Experimental: A 2M NaOH solution (250 μL) was added to a vial containing pyocyanin (10 mM, 25 μL) in 10 mM PBS (85 μL), previously spiked with phenazine (500 μM, 140 μL). The progress of the reaction was monitored by extracting aliquots (10 μL) from the reaction solution at various time intervals, diluting them with 250 mM PBS (90 μL) and adding 1 M HCl (10 μL) to neutralize the pH.
Therefore, it was necessary to develop a simple method to convert pyocyanin in 1-hydroxyphenazine with a good yield. This could be achieved by treating pyocyanin solutions with 1 M NaOH during 20 min at a.t. […] As shown in FIG. 2 (bottom), a good correlation was observed (R^2=0.943) between the sample measurements and the spiked samples for the detection of pyocyanin once hydrolyzed.

SMILES	% RC (cross-reactivity) (As230 antiserum)	IC50 (As230 antiserum)	% RC (cross-reactivity) (As230 antiserum; listed as pyocyanin)	conversion of pyocyanin in 1-hydroxyphenazine (hydrolysis of the methyl group) [1]
COS(=O)(=O)[O-].C[n+]1c2ccccc2nc2ccccc21 [Methyl 5-methylphenazine sulfate]	0.4%	0.14 µM		
O=C(O)c1ccc2nc3ccccc3nc2c1 [Phenazine-2-carboxylic acid]	<0.1%	> 0.8 µM		
Oc1cccc2nc3ccccc3nc12 [1-hydroxyphenazine]	100%	0.00062 µM		
c1ccc2nc3ccccc3nc2c1 [Phenazine]	<0.1%	> 0.8 µM		
Cn1c2cccc(=O)c-2nc2ccccc21 [Pyocyanin, pyocyanin]	<0.1%	> 0.8 µM	less than 0.1%	quantitative

From patent publication US10422791B2, “Haptens and conjugates derived from pyocyanin, antibodies thereof, and immunochemical method for detecting infections caused by Pseudomonas aeruginosa” (priority 2013, dated 2019)
